This note sets out measurements from PMC5481520 (Microbial Biotechnology, 2017).

The target in the experiment is T1, LdtR (Candidatus Liberibacter asiaticus, UniProt A0ABN4AZS1).
T1 construct: gene WSI_01095
The class given is binding. As to conditions: promoters of CLIBASIA_02120 and CLIBASIA_03520; pH 7.2, 150 mM KCl, 10 mM MgCl2, 37 °C.

For `CCc1oc2ccccc2c1C(=O)c1cc(Br)c(O)c(Br)c1` [benzbromarone], the “EMSA, disruption of LdtR binding to promoter DNA” value was “benzbromarone and phloretin disrupted the binding of LdtR to both promoters (Fig. S2)”.

As to `O=C(CCc1ccc(O)cc1)c1c(O)cc(O)cc1O` [phloretin], the “EMSA, disruption of LdtR binding to promoter DNA” value is “benzbromarone and phloretin disrupted the binding of LdtR to both promoters (Fig. S2)”.
